Laboratory results published in patent US20090291942A1, “IMIDAZO PYRIDINE DERIVATIVES” (priority 2008, published 2009).
Counter-ions that a name gives are not always drawn.

Target: T1, human GPR4 (Homo sapiens, UniProt P46093)
T1 construct: expressed in transfected cells
Test: Cell-based assay for human GPR4 activity (pH-induced cAMP formation, HTRF)
Details: HeLa cells stably expressing human GPR4, pH-induced cAMP formation
Procedure: a) Cell-Based Assay for Human GPR4 Activity
HeLa cells stably expressing human GPR4 were established by transfecting the cells with a construct containing the human GPR4 coding sequence. The cells were grown in DMEM/HAM's F12 medium supplemented with 10% fetal calf serum (FCS), 100 u/ml penicillin, 100 μg/ml streptomycin and 400 μg/ml G418 and 10 mM Hepes pH 8.0. pH-induced formation of cAMP was determined using the HTRF technology as provided by CisBio Inc. The cells were seeded in 384-well plates and cultured for 24 hours at 37° C., 5% CO2 before performing the assay. Medium was removed and 10 μl buffer A (HBS, 10 mM Hepes, pH 8, 2 mM IBMX) was added. For compound testing, buffer A with 2× concentrated compounds was used. Cells were incubated for 15 min at room temperature. 10 μl buffer B (HBS, 30 mM Hepes, specific pH) was added to reach the appropriate final pH for stimulation (see below) and incubation was continued for 15 min at room temperature. […] HBS: 130 mM NaCl, 0.9 mM NaH2PO4, 5.4 mM KCl, 0.8 mM MgSO4, CaCl2 1.8 mM, 25 mM glucose, 10-30 mM Hepes. Adjustment of HBS buffers: Bf A Bf B Final stimulation pH (1 volume buffer A+1 volume buffer B)
Compounds were diluted from fresh stock solutions at 10 mM in DMSO to 2 mM and then used for serial dilutions in DMSO.

T1 sequence (P46093 whole entry): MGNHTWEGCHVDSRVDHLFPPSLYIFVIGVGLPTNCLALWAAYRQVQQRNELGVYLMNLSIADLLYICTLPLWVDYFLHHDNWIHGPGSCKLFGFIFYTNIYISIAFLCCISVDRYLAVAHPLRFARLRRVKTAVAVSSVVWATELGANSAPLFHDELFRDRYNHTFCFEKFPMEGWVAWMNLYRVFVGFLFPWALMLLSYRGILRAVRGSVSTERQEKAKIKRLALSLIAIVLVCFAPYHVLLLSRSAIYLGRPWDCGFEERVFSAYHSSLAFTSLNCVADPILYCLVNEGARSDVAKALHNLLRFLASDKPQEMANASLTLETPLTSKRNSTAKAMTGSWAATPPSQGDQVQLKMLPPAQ

| Structure (SMILES) | IC50 |
| --- | --- |
| CCc1nc2c(C)cc(C)nc2n1Cc1ccc(/C=C/CN2CCN(CCCN(C)C)CC2)cc1 [Example 59, [3-(4-{(E)-3-[4-(2-Ethyl-5,7-dimethyl-imidazo[4,5-b]pyridin-3-ylmethyl)-phenyl]-allyl}-piperazin-1-yl)-propyl]-dimethyl-amine dihydrochloride] | 231 nM |
| CCc1nc2c(C)cc(C)nc2n1Cc1ccc(/C=C/C(=O)N2CCC(N3CCCCC3)CC2)cc1 [Example 97, (E)-1-[1,4′]Bipiperidinyl-1′-yl-3-[4-(2-ethyl-5,7-dimethyl-imidazo[4,5-b]pyridin-3-ylmethyl)-phenyl]-propenone hydrochloride] | 445 nM |
| CCCc1nc2c(C)cc(C)nc2n1Cc1ccc(/C=C/CN2CCC(N3CCCCC3)CC2)cc1 [Example 82, 1′-{(E)-3-[4-(5,7-Dimethyl-2-propyl-imidazo[4,5-b]pyridin-3-ylmethyl)-phenyl]-allyl}-[1,4′]bipiperidine dihydrochloride] | 455 nM |
| CCc1nc2c(C)cc(C)nc2n1Cc1ccc(/C=C/CN2CCN3CCCC3C2C)cc1 (centres unmarked) [Example 73, 2-Ethyl-5,7-dimethyl-3-{4-[(E)-3-(1-methyl-hexahydro-pyrrolo[1,2-a]pyrazin-2-yl)-propenyl]-benzyl}-3H-imidazo[4,5-b]pyridine dihydrochloride] | 887 nM |
| CCc1nc2c(C)cc(C)nc2n1Cc1ccc(C(=O)NCCCCN2CCCCCC2)cc1 [Example 100, N-(4-Azepan-1-yl-butyl)-4-(2-ethyl-5,7-dimethyl-imidazo[4,5-b]pyridin-3-ylmethyl)-benzamide] | 495 nM |
| CCc1nc2c(C)cc(C)nc2n1Cc1ccc(/C=C/CN2CCN(C(C)(C)C)CC2)cc1 [Example 51, 3-{4-[(E)-3-(4-tert-Butyl-piperazin-1-yl)-propenyl]-benzyl}-2-ethyl-5,7-dimethyl-3H-imidazo[4,5-b]pyridine] | 161 nM |
| CCc1nc2c(C)cc(C)nc2n1Cc1ccc(CCCCN2CCC(N3CCCCC3)CC2)cc1 [Example 112, 1′-{4-[4-(2-Ethyl-5,7-dimethyl-imidazo[4,5-b]pyridin-3-ylmethyl)-phenyl]-butyl}-[1,4′]bipiperidine] | 59 nM |
| Cc1cc(C)c2nc(C(F)(F)F)n(Cc3ccc(/C=C/CN4CCN(C(C)C)CC4)cc3)c2n1 [Example 91, 3-{4-[(E)-3-(4-Isopropyl-piperazin-1-yl)-propenyl]-benzyl}-5,7-dimethyl-2-trifluoromethyl-3H-imidazo[4,5-b]pyridine dihydrochloride] | 140 nM |
| CCc1nc2c(C)cc(C)nc2n1Cc1ccc(CCCCN2CCN(C(C)C)CC2)cc1 [Example 111, 2-Ethyl-3-{4-[4-(4-isopropyl-piperazin-1-yl)-butyl]-benzyl}-5,7-dimethyl-3H-imidazo[4,5-b]pyridine dihydrochloride] | 412 nM |
| CCc1nc2c(C)cc(C)nc2n1Cc1ccc(/C=C/CN2CCN(C(C)C)C(C)C2)cc1 (centres unmarked) [Example 71, 2-Ethyl-3-{4-[(E)-3-(4-isopropyl-3-methyl-piperazin-1-yl)-propenyl]-benzyl}-5,7-dimethyl-3H-imidazo[4,5-b]pyridine] | 530 nM |
| CCc1nc2c(C)cc(C)nc2n1Cc1ccc(CCCN2CCN(C3CC3)CC2)cc1 [Example 9, 3-{4-[3-(4-Cyclopropyl-piperazin-1-yl)-propyl]-benzyl}-2-ethyl-5,7-dimethyl-3H-imidazo[4,5-b]pyridine] | 341 nM |
| CCCCCN1CCN(CCCc2ccc(Cn3c(CC)nc4c(C)cc(C)nc43)cc2)CC1 [Example 13, 2-Ethyl-5,7-dimethyl-3-{4-[3-(4-pentyl-piperazin-1-yl)-propyl]-benzyl}-3H-imidazo[4,5-b]pyridine] | 662 nM |
| CCc1nc2c(C)cc(C)nc2n1Cc1ccc(/C=C/CN2C[C@H]3C[C@@H]2CN3CC)cc1 [Example 74, 2-Ethyl-3-{4-[(E)-3-((1R,4R)-5-ethyl-2,5-diaza-bicyclo[2.2.1]hept-2-yl)-propenyl]-benzyl}-5,7-dimethyl-3H-imidazo[4,5-b]pyridine] | 323 nM |
| CCc1nc2c(C)cc(C)nc2n1Cc1ccc(/C=C/CN2CCOC(CNC(=O)OC(C)(C)C)C2)cc1 (centres unmarked) [Example 77, (4-{(E)-3-[4-(2-Ethyl-5,7-dimethyl-imidazo[4,5-b]pyridin-3-ylmethyl)-phenyl]-allyl}-morpholin-2-ylmethyl)-carbamic acid tert-butyl ester] | 512 nM |
| CCc1nc2c(C)cc(C)nc2n1Cc1ccc(/C=C/CN2CCC(OC)CC2)cc1 [Example 37, 2-Ethyl-3-{4-[(E)-3-(4-methoxy-piperidin-1-yl)-propenyl]-benzyl}-5,7-dimethyl-3H-imidazo[4,5-b]pyridine] | 419 nM |
| CCc1nc2c(C)cc(C)nc2n1Cc1ccc(/C=C/CN2CCC(OCC(=O)NC)CC2)cc1 [Example 38, 2-(1-{(E)-3-[4-(2-Ethyl-5,7-dimethyl-imidazo[4,5-b]pyridin-3-ylmethyl)-phenyl]-allyl}-piperidin-4-yloxy)-N-methyl-acetamide] | 718 nM |

Other lines, results leading:

| IC50 | Structure (SMILES) |
| --- | --- |
| 296 nM | Cc1cc(C)c2nc(C(F)(F)F)n(Cc3ccc(/C=C/CN4CCC(N5CCCCC5)CC4)cc3)c2n1 [Example 87, 1′-{(E)-3-[4-(5,7-Dimethyl-2-trifluoromethyl-imidazo[4,5-b]pyridin-3-ylmethyl)-phenyl]-allyl}-[1,4′]bipiperidinyl dihydrochloride] |
| 186 nM | CCc1nc2c(C)cc(C)nc2n1Cc1ccc(CCCN2CCN(C3CCCC3)CC2)cc1 [Example 18, 3-{4-[3-(4-Cyclopentyl-piperazin-1-yl)-propyl]-benzyl}-2-ethyl-5,7-dimethyl-3H-imidazo[4,5-b]pyridine] |
| 24 nM | CCc1nc2c(C)cc(C)nc2n1Cc1ccc(/C=C(\F)CN2CCN(C(C)C)CC2)cc1 [Example 94, 2-Ethyl-3-{4-[(Z)-2-fluoro-3-(4-isopropyl-piperazin-1-yl)-propenyl]-benzyl}-5,7-dimethyl-3H-imidazo[4,5-b]pyridine dihydrochloride] |
| 280 nM | CCc1nc2c(C)cc(C)nc2n1Cc1ccc(/C=C/CN2CCC(O)(CN3CCOCC3)CC2)cc1 [Example 39, 1-{(E)-3-[4-(2-Ethyl-5,7-dimethyl-imidazo[4,5-b]pyridin-3-ylmethyl)-phenyl]-allyl}-4-morpholin-4-ylmethyl-piperidin-4-ol] |
| 139 nM | CCc1nc2c(C)cc(C)nc2n1Cc1ccc(/C=C/CN2CCN(C)CC2)cc1 [Example 43, 2-Ethyl-5,7-dimethyl-3-{4-[(E)-3-(4-methyl-piperazin-1-yl)-propenyl]-benzyl}-3H-imidazo[4,5-b]pyridine] |
| 496 nM | CCc1nc2c(C)cc(C)nc2n1Cc1ccc(/C=C/CN2CCN(C)C[C@@H]2C(C)C)cc1 [Example 70, 2-Ethyl-3-{4-[(E)-3-((S)-2-isopropyl-4-methyl-piperazin-1-yl)-propenyl]-benzyl}-5,7-dimethyl-3H-imidazo[4,5-b]pyridine dihydrochloride] |
| 995 nM | CCc1nc2c(C)cc(C)nc2n1Cc1ccc(/C=C/CN2CCN(CCN(CC)CC)CC2)cc1 [Example 60, Diethyl-[2-(4-{(E)-3-[4-(2-ethyl-5,7-dimethyl-imidazo[4,5-b]pyridin-3-ylmethyl)-phenyl]-allyl}-piperazin-1-yl)-ethyl]-amine hydrochloride] |
| 140 nM | CCc1nc2c(C)cc(C)nc2n1Cc1ccc(/C=C/CN2CCN(CCC(C)C)CC2)cc1 [Example 52, 2-Ethyl-5,7-dimethyl-3-(4-{(E)-3-[4-(3-methyl-butyl)-piperazin-1-yl]-propenyl}-benzyl)-3H-imidazo[4,5-b]pyridine dihydrochloride] |
| 189 nM | CCc1nc2c(C)cc(C)nc2n1Cc1ccc(C#CCN2CCN(C(C)C)CC2)cc1 [Example 1, 2-Ethyl-3-{4-[3-(4-isopropyl-piperazin-1-yl)-prop-1-ynyl]-benzyl}-5,7-dimethyl-3H-imidazo[4,5-b]pyridine] |
| 111 nM | CCc1nc2c(C)cc(C)nc2n1Cc1ccc(/C=C/CN2C[C@H]3C[C@@H]2CN3CC2CC2)cc1 [Example 76, 3-{4-[(E)-3-((1R,4R)-5-Cyclopropylmethyl-2,5-diaza-bicyclo[2.2.1]hept-2-yl)-propenyl]-benzyl}-2-ethyl-5,7-dimethyl-3H-imidazo[4,5-b]pyridine trihydrochloride] |
| 227 nM | CCc1nc2c(C)cc(C)nc2n1Cc1ccc(CCN2CCC(N3CCCCC3)CC2)cc1 [Example 5, 1′-{2-[4-(2-Ethyl-5,7-dimethyl-imidazo[4,5-b]pyridin-3-ylmethyl)-phenyl]-ethyl}-[1,4′]bipiperidinyl] |
| 485 nM | CCc1nc2c(C)cc(C)nc2n1Cc1ccc(/C=C/Cn2ccnc2)cc1 [Example 80, 2-Ethyl-3-[4-((E)-3-imidazol-1-yl-propenyl)-benzyl]-5,7-dimethyl-3H-imidazo[4,5-b]pyridine hydrochloride] |
| 568 nM | COC(=O)C1CCN(C/C=C/c2ccc(Cn3c(C(F)(F)F)nc4c(C)cc(C)nc43)cc2)CC1 [Example 90, 1-{(E)-3-[4-(5,7-Dimethyl-2-trifluoromethyl-imidazo[4,5-b]pyridin-3-ylmethyl)-phenyl]-allyl}-piperidine-4-carboxylic acid methyl ester hydrochloride] |
